# Assay results from patent US20080103205A1, “Pesticidal compositions and methods of use” (priority 2006, published 2008).
# Read-outs that look alike come from different tables or passages of the source.
# How the values were obtained:
# [1] = test system: Meloidogyne incognita; assay: Toxicity test, J2 juveniles of Meloidogyne incognita, 96 well micro plate; format: in vivo; conditions: for mortality at 50 ppm / mortality at 100 ppm / mortality at 200 ppm / mortality at 300 ppm / mortality at 400 ppm: Meloidogyne incognita
# Description: Methodology: Toxicity tests were conducted using J2 juveniles of Meloidogyne incognita adult Caenorhabditis elegans collected from nematode-infested tomato plant roots and culture Petri plates, respectively. Test concentrations of 50, 100, 200, 300, or 400 ppm were prepared in 0.2% dimethylsulfoxide (DMSO) in tap water. Aliquots (300 microliters (ul)) were applied to a 96 well micro plate and a 20 ul aqueous solution containing nematodes was added. The number of nematodes in 20 ul ranged from 17 to 30. Micro plates were sealed with Parafilm™ and incubated at room temperature. Similar tests conducted with 0.2% DMSO in tap water served as controls. Nematode mortality was checked at 24, 48, 72, 120, and 168 hr after incubation. Nematodes that were motionless for 30 sec when observed under a stereomicroscope were considered paralyzed and included in mortality counts. Each concentration was replicated five times and mean percent mortality was calculated after correcting for control mortality using Abbott's formula.
# Data Analysis: Mortality data were analyzed using PROC PROBIT (SAS) program and LC50 values were estimated.
# [2] = test system: Meloidogyne incognita eggs; assay: M. incognita egg hatching; format: in vivo
# Description: Meloidogyne incognita (plant parasitic nematode) eggs were collected from tomato plant roots and were suspended in water. The solution was either diluted or concentrated to adjust the egg load to about 5000/ml. AT stock solutions prepared in DMSO and 300 ul of test solution was placed in a well, along with 20 ul of aqueous solution containing eggs. The number of eggs in 20 ul solution ranged from 115 to 143 (n=10). Each treatment (2, 5, 10, 20, or 40 ppm) was replicated 5 times. Microplates were sealed with Parafilm™ and incubated at room temperature. Similar tests conducted with 0.2% DMSO alone served as controls. Egg hatching was monitored at 24, 72, 120, and 168 hr after incubation. Both moving and non-moving nematodes were counted to arrive at the number of eggs hatched. Proportion of egg hatch was calculated as the number of juveniles divided by total number of eggs.
# VSCC blockers effect on M. incognita egg hatching is shown in the following tables where % hatched is rounded to the nearest percentage point and where “% C*” is % hatch, normalized to control.
# [3] = 24 hr, read-out: Corrected Mortality (%)
# [4] = 48 hr, read-out: Corrected Mortality (%)
# [5] = 72 hr, read-out: Corrected Mortality (%)
# [6] = 120 hr, read-out: Corrected Mortality (%)
# [7] = 120 hr, read-out: Mortality (%)
# [8] = 168 hr, read-out: Corrected Mortality (%)
# [9] = 168 hr, read-out: Mortality (%)
smiles,measurement,setting,value
"O=S(=O)(O)c1cc(N=C=S)ccc1/C=C/c1ccc(N=C=S)cc1S(=O)(=O)O [DIDS, trans-4,4′-diisothiocyanatostilbene-2,2′-disulfonic acid, reference compound]",LC50 (ppm),[1]; Day 2,356 ppm
same,LC50 (ppm),[1]; Day 3,36 ppm
same,LC50 (ppm),[1]; Day 5,20 ppm
same,LC50 (ppm),[1]; Day 7,4 ppm
same,mortality at 50 ppm,[1]; [3],9%
same,mortality at 50 ppm,"[1]; 24 hr, read-out: Mortality (%)",11%
same,mortality at 50 ppm,[1]; [4],36%
same,mortality at 50 ppm,"[1]; 48 hr, read-out: Mortality (%)",39%
same,mortality at 50 ppm,[1]; [5],56%
same,mortality at 50 ppm,"[1]; 72 hr, read-out: Mortality (%)",59%
same,mortality at 50 ppm,[1]; [6],73%
same,mortality at 50 ppm,[1]; [7],75%
same,mortality at 50 ppm,[1]; [8],98%
same,mortality at 50 ppm,[1]; [9],98%
same,mortality at 100 ppm,[1]; [3],16%
same,mortality at 100 ppm,"[1]; 24 hr, read-out: Mortality (%)",18%
same,mortality at 100 ppm,[1]; [4],39%
same,mortality at 100 ppm,"[1]; 48 hr, read-out: Mortality (%)",41%
same,mortality at 100 ppm,[1]; [5],61%
same,mortality at 100 ppm,"[1]; 72 hr, read-out: Mortality (%)",64%
same,mortality at 100 ppm,[1]; [6],84%
same,mortality at 100 ppm,[1]; [7],85%
same,mortality at 100 ppm,[1]; [8],99%
same,mortality at 100 ppm,[1]; [9],99%
same,mortality at 200 ppm,[1]; [3],19%
same,mortality at 200 ppm,"[1]; 24 hr, read-out: Mortality (%)",21%
same,mortality at 200 ppm,[1]; [4],43%
same,mortality at 200 ppm,"[1]; 48 hr, read-out: Mortality (%)",45%
same,mortality at 200 ppm,[1]; [5],67%
same,mortality at 200 ppm,"[1]; 72 hr, read-out: Mortality (%)",69%
same,mortality at 200 ppm,[1]; [6],90%
same,mortality at 200 ppm,[1]; [7],91%
same,mortality at 200 ppm,[1]; [8],100%
same,mortality at 200 ppm,[1]; [9],100%
same,mortality at 300 ppm,[1]; [3],20%
same,mortality at 300 ppm,"[1]; 24 hr, read-out: Mortality (%)",22%
same,mortality at 300 ppm,[1]; [4],46%
same,mortality at 300 ppm,"[1]; 48 hr, read-out: Mortality (%)",48%
same,mortality at 300 ppm,[1]; [5],77%
same,mortality at 300 ppm,"[1]; 72 hr, read-out: Mortality (%)",79%
same,mortality at 300 ppm,[1]; [6],96%
same,mortality at 300 ppm,[1]; [7],96%
same,mortality at 300 ppm,[1]; [8],100%
same,mortality at 300 ppm,[1]; [9],100%
same,mortality at 400 ppm,[1]; [3],22%
same,mortality at 400 ppm,"[1]; 24 hr, read-out: Mortality (%)",24%
same,mortality at 400 ppm,[1]; [4],55%
same,mortality at 400 ppm,"[1]; 48 hr, read-out: Mortality (%)",57%
same,mortality at 400 ppm,[1]; [5],78%
same,mortality at 400 ppm,"[1]; 72 hr, read-out: Mortality (%)",89%
same,mortality at 400 ppm,[1]; [6],100%
same,mortality at 400 ppm,[1]; [7],100%
same,mortality at 400 ppm,[1]; [8],100%
same,mortality at 400 ppm,[1]; [9],100%
same,Eggs Hatched %,"[2]; 2 ppm, 24 hr",10%
same,"Eggs Hatched % C* (% hatch, normalized to control)","[2]; 2 ppm, 24 hr",100%
same,Eggs Hatched No.,"[2]; 2 ppm, 24 hr",66
same,Eggs Hatched %,"[2]; 2 ppm, 72 hr",14%
same,"Eggs Hatched % C* (% hatch, normalized to control)","[2]; 2 ppm, 72 hr",87%
same,Eggs Hatched No.,"[2]; 2 ppm, 72 hr",95
same,Eggs Hatched %,"[2]; 2 ppm, 120 hr",19%
same,"Eggs Hatched % C* (% hatch, normalized to control)","[2]; 2 ppm, 120 hr",86%
same,Eggs Hatched No.,"[2]; 2 ppm, 120 hr",128
same,Eggs Hatched %,"[2]; 2 ppm, 168 hr",22%
same,"Eggs Hatched % C* (% hatch, normalized to control)","[2]; 2 ppm, 168 hr",79%
same,Eggs Hatched No.,"[2]; 2 ppm, 168 hr",162
same,Eggs Hatched %,"[2]; 5 ppm, 24 hr",9%
same,"Eggs Hatched % C* (% hatch, normalized to control)","[2]; 5 ppm, 24 hr",90%
same,Eggs Hatched No.,"[2]; 5 ppm, 24 hr",62
same,Eggs Hatched %,"[2]; 5 ppm, 72 hr",13%
same,"Eggs Hatched % C* (% hatch, normalized to control)","[2]; 5 ppm, 72 hr",81%
same,Eggs Hatched No.,"[2]; 5 ppm, 72 hr",91
same,Eggs Hatched %,"[2]; 5 ppm, 120 hr",17%
same,"Eggs Hatched % C* (% hatch, normalized to control)","[2]; 5 ppm, 120 hr",77%
same,Eggs Hatched No.,"[2]; 5 ppm, 120 hr",129
same,Eggs Hatched %,"[2]; 5 ppm, 168 hr",21%
same,"Eggs Hatched % C* (% hatch, normalized to control)","[2]; 5 ppm, 168 hr",75%
same,Eggs Hatched No.,"[2]; 5 ppm, 168 hr",159
same,Eggs Hatched %,"[2]; 10 ppm, 24 hr",9%
same,"Eggs Hatched % C* (% hatch, normalized to control)","[2]; 10 ppm, 24 hr",90%
same,Eggs Hatched No.,"[2]; 10 ppm, 24 hr",60
same,Eggs Hatched %,"[2]; 10 ppm, 72 hr",13%
same,"Eggs Hatched % C* (% hatch, normalized to control)","[2]; 10 ppm, 72 hr",81%
same,Eggs Hatched No.,"[2]; 10 ppm, 72 hr",83
same,Eggs Hatched %,"[2]; 10 ppm, 120 hr",15%
same,"Eggs Hatched % C* (% hatch, normalized to control)","[2]; 10 ppm, 120 hr",68%
same,Eggs Hatched No.,"[2]; 10 ppm, 120 hr",103
same,Eggs Hatched %,"[2]; 10 ppm, 168 hr",18%
same,"Eggs Hatched % C* (% hatch, normalized to control)","[2]; 10 ppm, 168 hr",64%
same,Eggs Hatched No.,"[2]; 10 ppm, 168 hr",136
same,Eggs Hatched %,"[2]; 20 ppm, 24 hr",8%
same,"Eggs Hatched % C* (% hatch, normalized to control)","[2]; 20 ppm, 24 hr",80%
same,Eggs Hatched No.,"[2]; 20 ppm, 24 hr",51
same,Eggs Hatched %,"[2]; 20 ppm, 72 hr",11%
same,"Eggs Hatched % C* (% hatch, normalized to control)","[2]; 20 ppm, 72 hr",69%
same,Eggs Hatched No.,"[2]; 20 ppm, 72 hr",64
same,Eggs Hatched %,"[2]; 20 ppm, 120 hr",12%
same,"Eggs Hatched % C* (% hatch, normalized to control)","[2]; 20 ppm, 120 hr",55%
same,Eggs Hatched No.,"[2]; 20 ppm, 120 hr",79
same,Eggs Hatched %,"[2]; 20 ppm, 168 hr",15%
same,"Eggs Hatched % C* (% hatch, normalized to control)","[2]; 20 ppm, 168 hr",54%
same,Eggs Hatched No.,"[2]; 20 ppm, 168 hr",99
same,Eggs Hatched %,"[2]; 40 ppm, 24 hr",7%
same,"Eggs Hatched % C* (% hatch, normalized to control)","[2]; 40 ppm, 24 hr",70%
same,Eggs Hatched No.,"[2]; 40 ppm, 24 hr",48
same,Eggs Hatched %,"[2]; 40 ppm, 72 hr",10%
same,"Eggs Hatched % C* (% hatch, normalized to control)","[2]; 40 ppm, 72 hr",62%
same,Eggs Hatched No.,"[2]; 40 ppm, 72 hr",55
same,Eggs Hatched %,"[2]; 40 ppm, 120 hr",10%
same,"Eggs Hatched % C* (% hatch, normalized to control)","[2]; 40 ppm, 120 hr",45%
same,Eggs Hatched No.,"[2]; 40 ppm, 120 hr",63
same,Eggs Hatched %,"[2]; 40 ppm, 168 hr",11%
same,"Eggs Hatched % C* (% hatch, normalized to control)","[2]; 40 ppm, 168 hr",39%
same,Eggs Hatched No.,"[2]; 40 ppm, 168 hr",75
